Literature values, collected in patent publication US10010703B2, “Drug device configured for wireless communication” (POP TEST ABUSE DETERRENT TECHNOLOGY LLC, priority 2014, dated 2018).

Legend:
glucocorticoid receptor = biological target: T1, glucocorticoid receptor (Homo sapiens, UniProt P04150)
T1 sequence (P04150 1-777): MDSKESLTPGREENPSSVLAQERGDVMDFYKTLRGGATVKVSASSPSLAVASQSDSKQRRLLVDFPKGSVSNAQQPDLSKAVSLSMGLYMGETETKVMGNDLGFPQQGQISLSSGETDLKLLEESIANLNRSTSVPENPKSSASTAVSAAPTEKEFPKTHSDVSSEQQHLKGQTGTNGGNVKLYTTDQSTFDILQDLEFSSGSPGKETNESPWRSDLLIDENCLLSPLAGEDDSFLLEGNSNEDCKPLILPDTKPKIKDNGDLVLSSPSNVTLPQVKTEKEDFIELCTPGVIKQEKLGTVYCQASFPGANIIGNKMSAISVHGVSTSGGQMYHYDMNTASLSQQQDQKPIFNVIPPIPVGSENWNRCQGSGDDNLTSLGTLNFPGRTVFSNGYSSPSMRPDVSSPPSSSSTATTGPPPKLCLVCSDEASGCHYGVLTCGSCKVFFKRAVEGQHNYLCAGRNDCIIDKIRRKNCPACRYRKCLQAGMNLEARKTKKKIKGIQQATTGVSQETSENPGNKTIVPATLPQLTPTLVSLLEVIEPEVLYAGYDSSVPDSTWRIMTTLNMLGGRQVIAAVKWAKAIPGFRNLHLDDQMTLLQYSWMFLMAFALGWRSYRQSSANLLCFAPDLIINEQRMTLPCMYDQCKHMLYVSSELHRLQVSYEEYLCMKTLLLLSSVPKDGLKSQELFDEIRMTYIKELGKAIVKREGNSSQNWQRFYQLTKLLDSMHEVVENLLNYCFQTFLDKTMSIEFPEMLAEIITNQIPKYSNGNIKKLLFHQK

progesterone receptor = biological target: T2, progesterone receptor (Homo sapiens, UniProt P06401)
T2 sequence (P06401 1-933): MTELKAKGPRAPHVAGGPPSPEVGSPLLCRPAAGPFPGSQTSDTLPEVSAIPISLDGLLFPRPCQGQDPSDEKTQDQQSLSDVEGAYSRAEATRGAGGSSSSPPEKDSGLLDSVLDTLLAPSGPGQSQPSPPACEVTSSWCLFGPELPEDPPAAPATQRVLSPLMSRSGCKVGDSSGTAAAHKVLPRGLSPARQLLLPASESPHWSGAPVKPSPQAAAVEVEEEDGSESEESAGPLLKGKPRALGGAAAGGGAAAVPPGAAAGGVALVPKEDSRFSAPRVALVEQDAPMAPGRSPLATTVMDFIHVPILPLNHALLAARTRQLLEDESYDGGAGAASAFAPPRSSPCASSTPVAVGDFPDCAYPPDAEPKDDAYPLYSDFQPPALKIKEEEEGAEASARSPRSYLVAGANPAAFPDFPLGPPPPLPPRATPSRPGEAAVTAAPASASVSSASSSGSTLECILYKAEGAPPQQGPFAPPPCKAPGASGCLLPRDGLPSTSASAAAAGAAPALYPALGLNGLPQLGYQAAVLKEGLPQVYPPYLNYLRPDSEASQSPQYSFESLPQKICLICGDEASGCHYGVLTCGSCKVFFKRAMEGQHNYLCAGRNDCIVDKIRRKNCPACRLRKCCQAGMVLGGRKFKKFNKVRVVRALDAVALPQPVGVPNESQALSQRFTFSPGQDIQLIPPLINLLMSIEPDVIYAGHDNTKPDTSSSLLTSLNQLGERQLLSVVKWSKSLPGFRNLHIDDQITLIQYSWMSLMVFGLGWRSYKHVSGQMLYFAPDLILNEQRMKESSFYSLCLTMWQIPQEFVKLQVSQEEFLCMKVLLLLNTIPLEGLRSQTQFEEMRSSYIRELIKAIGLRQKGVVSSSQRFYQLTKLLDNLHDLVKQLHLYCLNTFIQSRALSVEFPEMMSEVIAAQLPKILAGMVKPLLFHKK

estrogen receptor = biological target: T3, estrogen receptor (Homo sapiens, UniProt P03372)
T3 sequence (P03372 1-595): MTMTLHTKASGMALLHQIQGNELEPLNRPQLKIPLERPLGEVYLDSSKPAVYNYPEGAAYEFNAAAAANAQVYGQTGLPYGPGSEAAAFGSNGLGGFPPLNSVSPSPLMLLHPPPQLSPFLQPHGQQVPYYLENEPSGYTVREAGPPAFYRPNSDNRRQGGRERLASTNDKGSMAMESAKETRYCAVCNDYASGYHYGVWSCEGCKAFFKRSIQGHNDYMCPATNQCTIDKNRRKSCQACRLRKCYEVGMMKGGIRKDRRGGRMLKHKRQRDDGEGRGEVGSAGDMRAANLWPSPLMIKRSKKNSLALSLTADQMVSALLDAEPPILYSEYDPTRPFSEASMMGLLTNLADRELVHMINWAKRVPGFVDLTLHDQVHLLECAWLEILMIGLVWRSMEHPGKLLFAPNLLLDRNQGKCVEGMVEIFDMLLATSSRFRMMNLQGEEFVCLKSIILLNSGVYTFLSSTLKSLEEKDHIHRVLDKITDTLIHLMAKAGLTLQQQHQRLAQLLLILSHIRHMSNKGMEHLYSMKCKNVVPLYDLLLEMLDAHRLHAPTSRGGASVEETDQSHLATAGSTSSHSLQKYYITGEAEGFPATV

[1] = phase I and phase II clinical trials

glucocorticoid receptor binding affinity (glucocorticoid receptor): high | affinity for / cross-binding to progesterone receptor (progesterone receptor): without significant cross-binding | affinity for / cross-binding to estrogen receptor (estrogen receptor): without significant cross-binding
Structure (SMILES): CC#C[C@]1(O)CC[C@H]2[C@@H]3CCC4=CC(=O)CCC4=C3[C@@H](c3ccc4c(c3)OCO4)C[C@@]21C [ORG 34517, (11β,17β)-11-(1,3-benzodioxol-5-yl)-17-hydroxy-17-(1-propynyl) estra-4,9-dien-3-one]
significant toxicities and side effects [1]: none were identified
